The values that follow come from patent US7728131B2, “Amide derivative and medicine” (Nippon Shinyaku Co., Ltd., priority 2003, dated 2010).

pIC50: −log10 of the molar value. Structures can show the parent of a compound that is named as a salt. Where two headings read alike, the source gives them in different places.

Data set [1] deals with K562 cells. Put plainly: Cell growth inhibitory effect, K562 cells (Cell counting Kit-8, 72 hours).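 As to all read-outs here: Read-out is formazan absorbance at 450 nm from WST-8 reduction after a 3 h color reaction, with K562 and U937 cells grown in 96-well plates.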 To be noted: for IC50: Homo sapiens, K562, 72 h, read-out: K562 cells (IC50 value: μM); for Ratio (U937 cells/K562 cells): IC50 U937 cells / IC50 K562 cells.
Method: of Cell counting Kit-8 (5 mmol/l WST-8, 0.2 mmol/1 1-Methoxy PMS, 150 mmol/l NaCl) (manufactured by Dojindo) was added to each well. After reaction for color development in a CO2 incubator for 3 hours, an absorbance of formazan, generated by reduction of WST-8 was determined at 450 nm using Multi-level counter ARVOsx (manufactured by Wallac).
K562 cells and U937 cells (purchased from American Type Culture Collection) were cultured in a RPMI-1640 medium (manufactured by Sigma) containing 10% (v/v) fetal calf serum (FCS) (manufactures by Sigma) (RPMI-1640/FCS). K562 cells and U937 cells were seeded at a density of 5000 cells/100 μl/well and 4000 cells/100 μl/well in each of 96-hole-plate (manufactured by costar), respectively. The plate was incubated in a CO2 incubator overnight. […] The resulting solution was diluted 500 times in a RPMI-1640/FCS medium and then 100 μl of the diluent was added in a well. The plate was incubated in a CO2 incubator. After 72 hours, 20 μl
Data set [2] has as its system U937 cells. The experiment in a line: Cell growth inhibitory effect, U937 cells (Cell counting Kit-8, 72 hours). Type of data set: cell-based. To be noted: Homo sapiens, U-937, BCR-ABL negative U937 cells, WST-8 absorbance; for IC50: read-out: U937 cells (IC50 value: μM); for pIC50: continuation of Table 3, read-out: U937 cells (IC50 value: nμM). How it is done:
The plate was incubated in a CO2 incubator overnight. […] The plate was incubated in a CO2 incubator. After 72 hours, 20 μl

`Cc1ccc(NC(=O)c2ccc(CN3CCN(C)CC3)c(C(F)(F)F)c2)cc1Nc1cc(-c2cccnc2)ccn1` (as salt: methanesulfonate) [Example 29, 4-(4-methylpiperazin-1-ylmethyl)-3-trifluoromethyl-N-{4-methyl-3-[4-(3-pyridyl)pyridin-2-ylamino]phenyl}benzamide methanesulfonate] came in with a melting point of 189 to 191 °C.
Consider `CN[C@H]1CCN(Cc2ccc(C(=O)Nc3ccc(C)c(Nc4nccc(-c5cncnc5)n4)c3)cc2C(F)(F)F)C1` (as salt: salt) [Example 68, (−)-4-[(S)-3-(methylamino)pyrrolidin-1-ylmethyl]-3-trifluoromethyl-N-{4-methyl-3-[4-(5-pyrimidinyl)pyrimidin-2-ylamino]phenyl}benzamide], for which the melting point is 142 to 149 °C (dec.).
Same read-out and setting: then `Cc1ccc(NC(=O)c2ccc(CN3CCNCC3)c(C(F)(F)F)c2)cc1Nc1nccc(-c2cncnc2)n1` (as salt: trifluoroacetate) [Example 43, 4-(1-piperazinylmethyl)-3-trifluoromethyl-N-{4-methyl-3-[4-(5-pyrimidinyl)pyrimidin-2-ylamino]phenyl}benzamide trifluoroacetate], with 199 to 202 °C (dec.).
For `Cc1ccc(NC(=O)c2ccc(CN3CCN(C)CC3)c(C(F)F)c2)cc1Nc1nccc(-c2cncnc2)n1.Cl` [Example 2, 3-difluoromethyl-4-(4-methylpiperazin-1-ylmethyl)-N-{4-methyl-3-[4-(5-pyrimidinyl)pyrimidin-2-ylamino]phenyl}benzamide hydrochloride], the melting point was 264 °C (dec.). Also, in data set [1], the IC50 turned out to be 0.0028 µM and the “Ratio (U937 cells/K562 cells)” value is listed as 5357. For the same compound, the IC50 in data set [2] was 15 µM.
Taken in the same sequence, the figures for `CCc1cc(C(=O)Nc2ccc(C)c(Nc3nccc(-c4cncnc4)n3)c2)ccc1CN1CCN(C)CC1.Cl` [Example 4, 3-ethyl-4-(4-methylpiperazin-1-ylmethyl)-N-{4-methyl-3-[4-(5-pyrimidinyl)pyrimidin-2-ylamino]phenyl}benzamide hydrochloride] were 253 to 255 °C (dec.), 0.002 µM, 14000 and 28 µM.
For `Cc1ccc(NC(=O)c2ccc(C=C3CCN(C)CC3)c(C(F)(F)F)c2)cc1Nc1nccc(-c2cncnc2)n1.Cl` [Example 6, 4-(1-methylpiperidin-4-ylidenemethyl)-3-trifluoromethyl-N-{4-methyl-3-[4-(5-pyrimidinyl)pyrimidin-2-ylamino]phenyl}benzamide hydrochloride] the same measures were 202 to 206 °C (dec.), 0.0012 µM, 3583 and 4.3 µM.
Taken in the same sequence, the figures for `Cc1ccc(NC(=O)c2ccc(CC3CCN(C)CC3)c(C(F)(F)F)c2)cc1Nc1nccc(-c2cncnc2)n1.Cl` [Example 8, 4-(1-methylpiperidin-4-ylmethyl)-3-trifluoromethyl-N-{4-methyl-3-[4-(5-pyrimidinyl)pyrimidin-2-ylamino]phenyl}benzamide hydrochloride] were 227 to 231 °C (dec.), 0.00098 µM, 4694 and 4.6 µM.
Compound `Cc1ccc(NC(=O)c2ccc(OC3CCN(C)CC3)c(C(F)(F)F)c2)cc1Nc1nccc(-c2cncnc2)n1.Cl` [Example 10, 4-(1-methylpiperidin-4-yloxy)-3-trifluoromethyl-N-{4-methyl-3-[4-(5-pyrimidinyl)pyrimidin-2-ylamino]phenyl}benzamide hydrochloride] returned a melting point of no less than 275 °C. In addition, in data set [1], the IC50 is 0.0021 µM and the “Ratio (U937 cells/K562 cells)” value was found to be 3857. Further, the IC50 in data set [2] was 8.1 µM.
Consider `Cc1ccc(NC(=O)c2cc(Cl)c(CN3CC[C@H](N(C)C)C3)c(Cl)c2)cc1Nc1nccc(-c2cncnc2)n1.Cl` [Example 12, (−)-3,5-dichloro-4-[(S)-3-(dimethylamino)pyrrolidin-1-ylmethyl]-N-{4-methyl-3-[4-(5-pyrimidinyl)pyrimidin-2-ylamino]phenyl}benzamide hydrochloride], for which the melting point was 161 to 170 °C (dec.). For the same compound, in data set [1], the half-inhibitory concentration (IC50) was 0.0056 µM and the “Ratio (U937 cells/K562 cells)” value worked out at 839. The IC50 in data set [2] came out at 4.7 µM.
Consider `Cc1ccc(NC(=O)c2ccc(CC3CCN(C)CC3)c(CF)c2)cc1Nc1nccc(-c2cncnc2)n1` [Example 21, 3-fluoromethyl-4-(1-methylpiperidin-4-ylmethyl)-N-{4-methyl-3-[4-(5-pyrimidinyl)pyrimidin-2-ylamino]phenyl}benzamide], for which, in data set [1], the IC50 was found to be 0.0063 µM and the “Ratio (U937 cells/K562 cells)” value is listed as 6667. In addition, in data set [2], the pIC50 was 4.38.
In the case of `Cc1ccc(NC(=O)c2ccc(CN3CCN(C)CC3)c(C(F)(F)F)c2)cc1Nc1cc(-c2cccnc2)ccn1` [Example 28, 4-(4-methylpiperazin-1-ylmethyl)-3-trifluoromethyl-N-{4-methyl-3-[4-(3-pyridyl)pyridin-2-ylamino]phenyl}benzamide], the melting point was 241 to 242 °C (dec.).
For `Cc1ccc(NC(=O)c2ccc(CN3CCN(C)CC3)c(C(F)(F)F)c2)cc1Nc1cc(-c2cccnc2)ccn1` [Example 29, 4-(4-methylpiperazin-1-ylmethyl)-3-trifluoromethyl-N-{4-methyl-3-[4-(3-pyridyl)pyridin-2-ylamino]phenyl}benzamide methanesulfonate], in data set [1], the IC50 was 0.0017 µM and the “Ratio (U937 cells/K562 cells)” value worked out at 824. In data set [2], the negative logarithm of the IC50 (pIC50) was 5.85.
Turning to `Cc1ccc(NC(=O)c2ccc(CN3CC[C@@H](N(C)C)C3)c(C(F)(F)F)c2)cc1Nc1nccc(-c2cncnc2)n1.Cl` [Example 38, (+)-4-[(R)-3-(dimethylamino)pyrrolidin-1-ylmethyl]-3-trifluoromethyl-N-{4-methyl-3-[4-(5-pyrimidinyl)pyrimidin-2-ylamino]phenyl}benzamide hydrochloride], in data set [1], the IC50 is 0.0019 µM and the “Ratio (U937 cells/K562 cells)” value was 4684. In data set [2], the pIC50 is 5.05.
For `Cc1ccc(NC(=O)c2ccc(CN3CCNCC3)c(C(F)(F)F)c2)cc1Nc1nccc(-c2cncnc2)n1` [Example 43, 4-(1-piperazinylmethyl)-3-trifluoromethyl-N-{4-methyl-3-[4-(5-pyrimidinyl)pyrimidin-2-ylamino]phenyl}benzamide trifluoroacetate], in data set [1], the IC50 stood at 0.0011 µM and the “Ratio (U937 cells/K562 cells)” value is 3545. In addition, in data set [2], the pIC50 is 5.41.
Taken in the same sequence, the figures for `Cc1ccc(NC(=O)c2ccc(CN3CC[C@H](N)C3=O)c(C(F)(F)F)c2)cc1Nc1nccc(-c2cncnc2)n1` [Example 46, (−)-4-((S)-3-amino-2-oxopyrrolidin-1-ylmethyl)-3-trifluoromethyl-N-{4-methyl-3-[4-(5-pyrimidinyl)pyrimidin-2-ylamino]phenyl}benzamide] were 0.019 µM, 1526 and 4.54.
Taken in the same sequence, the figures for `Cc1ccc(NC(=O)c2ccc(CN3CC[C@H](N(C)C)C3)c(C(F)(F)F)c2)cc1Nc1nccc(-c2cncnc2)n1.Cl` [Example 48, (−)-4-[(S)-3-(dimethylamino)pyrrolidin-1-ylmethyl]-3-trifluoromethyl-N-{4-methyl-3-[4-(5-pyrimidinyl)pyrimidin-2-ylamino]phenyl}benzamide hydrochloride] were 0.004 µM, 3000 and 4.92.
For `Cc1ccc(NC(=O)c2ccc(CN3CCC[C@H]3CN3CCCC3)c(C(F)(F)F)c2)cc1Nc1nccc(-c2cncnc2)n1.Cl` [Example 52, (−)-4-[(S)-2-(1-pyrrolidinylmethyl)pyrrolidin-1-ylmethyl]-3-trifluoromethyl-N-{4-methyl-3-[4-(5-pyrimidinyl)pyrimidin-2-ylamino]phenyl}benzamide hydrochloride] the same measures were 0.004 µM, 975 and 5.41.
Take `Cc1ccc(NC(=O)c2ccc(CN3CCN[C@@H](C)C3)c(C(F)(F)F)c2)cc1Nc1nccc(-c2cncnc2)n1.Cl` [Example 55, 4-((S)-3-methylpiperazin-1-ylmethyl)-3-trifluoromethyl-N-{4-methyl-3-[4-(5-pyrimidinyl)pyrimidin-2-ylamino]phenyl}benzamide]: in data set [1], the IC50 worked out at 0.0022 µM and the “Ratio (U937 cells/K562 cells)” value stood at 4545. Further, in data set [2], the negative-log IC50 (pIC50) was 5.00.
Taken in the same sequence, the figures for `CO[C@H]1CN(Cc2ccc(C(=O)Nc3ccc(C)c(Nc4nccc(-c5cncnc5)n4)c3)cc2C(F)(F)F)C[C@@H]1N(C)C.Cl` [Example 59, 4-[(3S,4S)-3-(dimethylamino)-4-methoxypyrrolidin-1-ylmethyl]-3-trifluoromethyl-N-{4-methyl-3-[4-(5-pyrimidinyl)pyrimidin-2-ylamino]phenyl}benzamide hydrochloride] were 0.0081 µM, 1605 and 4.89.
Taken in the same sequence, the figures for `CN[C@H]1CCN(Cc2ccc(C(=O)Nc3ccc(C)c(Nc4nccc(-c5cncnc5)n4)c3)cc2C(F)(F)F)C1` [Example 68, (−)-4-[(S)-3-(methylamino)pyrrolidin-1-ylmethyl]-3-trifluoromethyl-N-{4-methyl-3-[4-(5-pyrimidinyl)pyrimidin-2-ylamino]phenyl}benzamide] were 0.0024 µM, 2417 and 5.24.
